From patent US20260232681A1, “CRYSTALLINE FORMS OF N-[4-[4-(4-MORPHOLINYL)-7H-PYRROLO[2,3-D]PYRIMIDIN-6- YL]PHENYL]-4-[[3(R)-[(L-OXO-2-PROPEN-L-YL)AMINO]-L-PIPERIDINYL]METHYL]-2-PYRIDINECARBOXAMIDE AS A COVALENT INHIBITOR OF MENIN-MLL INTERACTION” (BIOMEA FUSION, INC., priority 2023, published 2026)
Entries after “also recorded” stand apart in the source; their conditions may differ.

Tests used:
[1] = tested on: Zucker Diabetic Fatty (ZDF) rats; test: Glycemic control and HbA1c in ZDF rats, 28-day dosing plus 28-day washout (Examples 104, 106); assay type: in vivo
Description: Rats were treated daily with Compound 10, liraglutide, or vehicle for twnety-eight days and monitored for an additional twenty-eight days post-treatment.
Zucker Diabetic Fatty (ZDF) rats were dosed daily with Compound 10, liraglutide, or vehicle for twenty-eight days (n=10 per group) and monitored for an additional twenty-eight days post last dose. Fasting blood glucose, insulin, C-peptide levels, HbA1c, oral glucose tolerance test (OGTT), and body weight were monitored during and post-treatment.
ZDF Rat Model—five treatment groups 1. Vehicle; 2. Compound 10 at 40 mg/kg; 3. Compound 10 at 85 mg/kg; 4. Compound 10 at 170 mg/kg; and 5. Liraglutide at 0.2 mg/kg; n=10 per group. Group 2 dose (40 mg/kg) was increased to 200 mg/kg on Day 17 for rest of the dosing phase. Daily dosing zero to twenty-eight days days QD→drug wash out twenty-eight to fifty-six days. Rats were monitored for the following parameters through dosing and wash out phases—body weight, fasting blood sugar, blood insulin, C-peptide, OGTT, and HbA1C.

[2] = tested on: Human ex vivo PDX tissue models harboring KRAS mutations; test: Ex vivo KRAS-mutated PDX tissue viability (CellTiter Glo, six days); assay type: cell-based; details: six-day treatment, all samples
Description: MOLM-13 and MiaPaCa-2 cells were incubated with Compound A for twenty-four hours and were analyzed by RNA-seq on an Illumina NextSeq 550 platform. […] Cell viability was measured using CellTiterGlo. Human ex vivo PDX tissue models harboring KRAS mutations were cultured with Compound A and clinical reversible menin inhibitors for six days. Cell viability was measured using CellTiter Glo.

[3] = tested on: streptozotocin (STZ) induced type II diabetes in Wistar Han rats; test: Glycemic control in streptozotocin-induced diabetic rats (Examples 103, 105); assay type: in vivo, rat
Description: The present example provides the ability of Compound 10 to restore glycemic control to streptozotocin (STZ) induced type II diabetes in Wistar Han rats. Fahmy et al., 2017, World J. Pharm. Med. Res. 3(3):37-39.
Control and test compounds were stored at 4° C. and prepared weekly as needed. The vehicle for positive control pioglitazone was 0.25% carboxymethylcellulose and 1% Tween® 80 in reverse osmosis deionized water. The vehicle for Compound 10 was 10% DMSO, 10% Solutol HS 15, and 80% (10% hydroxypropyl-β-cyclodextrin in 50 mM citrate buffer at pH 3.0). The vehicle for streptozotocin pretreatment was 0.1 M sodium citrate pH 4.5.
On Day −3, twenty-four Wistar Han rats (plus eight spare Wistar Han rats) were measured for body weight and non-fasting glucose. Starting on Day −42, D12451 Research Diet was provided ad libitum throughout the study, except during designated procedures, as was water. In order to minimize the effects of stress on blood glucose and body, all animals including the spares received daily sham doses with phosphate buffered saline pH 7.2 (dose volume 5 mL/kg) via gavage beginning on Study Day −5 to Day −1. 20% Glucose in drinking water (200 g/L) was provided ad libitum for 24 hr after streptozotocin injection on Day −14 and Day −7.
On Days −14 and −7, streptozotocin was administered at 30 mg/kg/day QD intraperitoneally. Starting on Day 1, control and test compound were administered on the following schedule.
On Days −7 to −1 and on Days 1, 8, and 14 non-fasting blood glucose was measured. On Day 15, an oral glucose tolerance test was administered. The animals were weighed and the animals were placed in clean cages without food. Access to water was provided throughout the procedure. The animals were fasted for five hours and a blood glucose measurement was determined. The animals were dosed via oral gavage with 2 g/kg glucose (10 mL/kg). Blood glucose was determined via venipuncture. The second drop of blood from the animal was placed on a hand-held glucometer (Abbott Alpha Trak) at the following times relative to the glucose dose: zero (just prior to glucose dose), 15, 30, 60, 90, and 120 min. Following the final blood glucose measurement, food was returned to the cages. On Day 17, 4-hour fasting glucose was measured. Serum samples were used to measure insulin by ELISA. Analysis was performed in one to three days of each collection. On Day 17, terminal blood collection was obtained at about 8 mL per animal and measured for blood glucose.
ZDF rats were treated daily with Compound 10, vehicle, or pioglitazone for sixteen days and monitored for an additional two weeks post-treatment until Day 29. STZ rat models were induced through pre-treatment of animals on a high-fat diet with low doses of streptozotocin at Day −14 and Day −7 prior to starting treatment at Day Zero until Day 16. ZDF and STZ rats were monitored for fasting blood glucose levels, oral glucose tolerance test (OGTT), insulin and C-peptide levels, HOMA-IR (Homeostatic Model Assessment of Insulin Resistance), blood lipemic levels, and body weight according to the schematic for each model below. ZDF rats were analyzed for indicated readouts for fifteen days post-treatment for OGTT at Day 29, and serum insulin and C-peptide at Day 31.
STZ Rat Model—three treatment groups 1. Vehicle; 2. Compound 10 at 175 mg/kg; and 3. Pioglitazone at 30 mg/kg; n=10 per group. […] Rats were monitored for the following parameters through dosing—body weight, blood glucose levels, and OGTT.

C=CC(=O)N[C@@H]1CCCN(Cc2ccnc(C(=O)Nc3ccc(-c4cc5c(N6CCOCC6)ncnc5[nH]4)cc3)c2)C1 [Compound A, N-[4-[4-(4-morpholinyl)-7H-pyrrolo[2,3-d]pyrimidin-6-yl]phenyl]-4-[[3(R)-[(1-oxo-2-propen-1-yl)amino]-1-piperidinyl]methyl]-2-pyridinecarboxamide]
glycemic control by oral glucose tolerance test (OGTT) ([1]; Day 25, versus vehicle): improved glycemic control | tolerability ([1]; daily for 28 days): tolerated Compound 10 well | HbA1c at all doses tested ([1]; effects lasting fifteen days after the last dose): significant reductions | 4-hour fasting blood glucose ([1]; high-dose arm, up to Day 29, listed as Compound 10): strong reduction; also recorded: sustained and significant reduction | growth of ex vivo preclinical models [2]: Complete abrogation of growth | blood lipemic levels ([3]; STZ rats): Significant reductions | body weight ([3]; STZ rats): Significant reductions | oral glucose tolerance test, glucose control ([3]; STZ rats, after fifteen days of treatment): significant glucose control | insulin in the non-fasting state ([3]; STZ-induced diabetes model): significant reduction | non-fasting glucose ([3]; STZ-induced diabetes model, compared to vehicle and control): sharp reduction
